This is an account of results in PMC8911927, “Synthesis and Biological Evaluation of 1-(2-(6-Methoxynaphthalen-2-yl)-6-methylnicotinoyl)-4-Substituted Semicarbazides/Thiosemicarbazides as Anti-Tumor Nur77 Modulators” (Molecules, 2022).

The test system of one data set is HeLa cells. Briefly: MTT cytotoxicity, HeLa. The format is cell-based, human. The conditions noted are these: 72 h, mean values. On the procedure:
(§1) All of the cell lines were obtained from the American Type Culture Collection (ATCC, Manassas, VA, USA) and grown in DMEM or RPMI culture medium containing 10% fetal bovine serum (v/v) in 5% CO2 at 37 °C.
(§2) Confluent cells in good state were cultured in 96-well plates (5–10 × 10^4 cells/mL). After cells were attached to the plate, compounds with various concentrations were applied at 37 °C for 72 h. Then, the cells were incubated with 10 μL of 5 mg/mL MTT reagent at 37 °C for 4 h. The supernatant was removed, and the cells were dissolved in 100 μL dimethyl sulfoxide and shaken for 5 min. Finally, the light absorption (OD) of the dissolved cells was measured at […].

The test system of the next data set is MCF-7 cells. As to the kind of experiment: MTT cytotoxicity, MCF-7. In kind it is cell-based, human. Particulars: mean values. The procedure:
as §1, §2

The next data set relates to HGC-27 cells. As to the kind of experiment: MTT cytotoxicity, HGC-27. The format is cell-based, human. The conditions noted are these: 72 h, mean values. The procedure: as §1, §2
Another data set relates to LO2 cells. As to the kind of experiment: MTT cytotoxicity, LO2 normal cells. The format is cell-based. On the procedure:
(§3) All of the cell lines were obtained from the American Type Culture Collection (ATCC, Manassas, VA, USA) and grown in DMEM or RPMI culture medium containing 10% fetal bovine serum (v/v) in 5% CO2 at 37 °C. Confluent cells in good state were cultured in 96-well plates (5–10 × 10^4 cells/mL). After cells were attached to the plate, compounds with various concentrations were applied at 37 °C for 72 h. […] The supernatant was removed, and the cells were dissolved in 100 μL dimethyl sulfoxide and shaken for 5 min.

Another data set has as its system HepG2 cells. Briefly: MTT cytotoxicity, HepG2. The format is cell-based. The conditions noted are these: read-out: Cancer Cells IC50, HepG2. On the procedure: as §3
The subject of a further data set is MDA-MB231 cells. Briefly: MTT cytotoxicity, MDA-MB231. The format is cell-based. Particulars: read-out: Cancer Cells IC50, MDA-MB231. On the procedure: as §3
The next data set relates to MRC-5 cells. Briefly: MTT cytotoxicity, MRC-5 normal cells. The format is cell-based. On the procedure: as §3
The subject of the next data set is A875 cells. As to the kind of experiment: MTT cytotoxicity, A875. The conditions noted are these: read-out: Cancer Cells IC50, A875. The format is cell-based. The procedure:
as §3

The next data set relates to H460 cells. As to the kind of experiment: MTT cytotoxicity, H460. In kind it is cell-based. Particulars: read-out: Cancer Cells IC50, H460. The procedure:
as §3

For the next data set, the system named is A549 cells. Briefly: MTT cytotoxicity, A549. In kind it is cell-based. The conditions noted are these: read-out: Cancer Cells IC50, A549. The procedure: as §3

“1-(2-(6-Methoxynaphthalen-2-yl)-6-methylnicotinoyl)-4-o-tolylsemicarbazide [Compound 9d]”: the IC50 in the data set with HeLa cells is 20.7 ± 0.26 µM; with MCF-7 cells (72 h) it was 35.2 ± 0.6 µM; with HGC-27 cells it was 39.1 ± 0.72 µM.

In turn, `CCCCCCNC(=S)NNC(=O)c1ccc(C)nc1-c1ccc2cc(OC)ccc2c1` [Compound 9l, 4-Hexyl-1-(2-(6-methoxynaphthalen-2-yl)-6-methylnicotinoyl)thiosemicarbazide] returned a melting point of 195 to 196 °C. The molecule further yielded an IC50 with HeLa cells (Homo sapiens) of 45.4 ± 0.11 µM. Moreover, in the data set with MCF-7 cells (Homo sapiens, MCF7, 72 h), the half-maximal inhibitory concentration (IC50) was 40.2 ± 0.33 µM. In the data set with HGC-27 cells (Homo sapiens), the IC50 amounted to 38.1 ± 0.21 µM.

Regarding “1-(2-(6-Methoxynaphthalen-2-yl)-6-methylnicotinoyl)-4-m-tolylthiosemicarbazide [Compound 9r]”, the IC50 was 20.2 ± 0.24 µM with HeLa cells, 18.4 ± 0.41 µM with MCF-7 cells (72 h) and 19.4 ± 0.11 µM with HGC-27 cells.

“1-(2-(6-Methoxynaphthalen-2-yl)-6-methylnicotinoyl)-4-phenylthiosemicarbazide [Compound 9p]”: the results for the 50% inhibitory concentration (IC50) in the data set on HeLa cells, in the data set with MCF-7 cells (72 h) and in the data set with HGC-27 cells were 14.7 ± 0.31 µM, 23.34 ± 0.21 µM and 19.24 ± 0.09 µM, respectively.

Turning to “4-Benzyl-1-(2-(6-methoxynaphthalen-2-yl)-6-methylnicotinoyl)semicarbazide [Compound 9c]”, the concentration for half-maximal inhibition (IC50) in the data set with HeLa cells was found to be 25.3 ± 0.45 µM; in the data set with MCF-7 cells (72 h) it was 21.1 ± 0.52 µM; in the data set with HGC-27 cells, 23.16 ± 0.2 µM.

For “1-(2-(6-Methoxynaphthalen-2-yl)-6-methylnicotinoyl)-4-(4-methoxyphenyl)thiosemicarbazide [Compound 9t]”, the IC50 in the data set on HeLa cells was 10.1 ± 0.61 µM; with MCF-7 cells (72 h), 11.4 µM; in the data set with HGC-27 cells it was 16.7 µM.

For “4-(3,5-Difluorophenyl)-1-(2-(6-methoxynaphthalen-2-yl)-6-methylnicotinoyl)semicarbazide [Compound 9j]”, the values for the IC50 with HeLa cells, with MCF-7 cells (72 h) and in the data set on HGC-27 cells were 12.1 ± 0.21 µM, 16.3 ± 0.34 µM and 16.6 ± 0.44 µM, respectively.

For “1-(2-(6-Methoxynaphthalen-2-yl)-6-methylnicotinoyl)-4-p-tolylsemicarbazide [Compound 9f]”, the IC50 was 24.2 ± 0.61 µM with HeLa cells, 23.3 ± 0.1 µM in the data set on MCF-7 cells (72 h) and 29.4 ± 0.31 µM in the data set on HGC-27 cells.

In the case of “4-(3,4-Dichlorophenyl)-1-(2-(6-methoxynaphthalen-2-yl)-6-methylnicotinoyl)thiosemicarbazide [Compound 9w]”, the IC50 in the data set with HeLa cells was 10.7 ± 0.34 µM; with MCF-7 cells (72 h), 10.9 ± 0.42 µM; with HGC-27 cells it was 16.4 ± 0.31 µM.

In the case of “1-(2-(6-Methoxynaphthalen-2-yl)-6-methylnicotinoyl)-4-p-tolylthiosemicarbazide [Compound 9s]”, the half-inhibitory concentration (IC50) stood at 16.12 ± 0.07 µM with HeLa cells, 19.3 ± 0.3 µM in the data set with MCF-7 cells (72 h) and 10.4 ± 0.19 µM in the data set on HGC-27 cells.

On to “4-Cyclopentyl-1-(2-(6-methoxynaphthalen-2-yl)-6-methylnicotinoyl)semicarbazide [Compound 9a]”, for which the IC50 came out at 88.39 ± 0.22 µM in the data set with HeLa cells, 60.26 ± 0.11 µM in the data set on MCF-7 cells (72 h) and 38.39 ± 0.32 µM with HGC-27 cells.

For “1-(2-(6-Methoxynaphthalen-2-yl)-6-methylnicotinoyl)-4-phenethylthiosemicarbazide [Compound 9o]”, the results for the IC50 in the data set with HeLa cells, with MCF-7 cells (72 h) and in the data set on HGC-27 cells were 20.7 ± 0.22 µM, 35.2 ± 0.09 µM and 39.12 ± 0.21 µM, respectively.

Consider “1-(2-(6-methoxynaphthalen-2-yl)-6-methylnicotinoyl)-4-m-tolylsemicarbazide [Compound 9e]”, for which the 50% inhibitory concentration (IC50) with HeLa cells turned out to be 24.65 ± 0.24 µM; with MCF-7 cells (72 h), 33.34 ± 0.12 µM; with HGC-27 cells it was 49.24 ± 0.26 µM.

Consider “4-Cyclohexyl-1-(2-(6-methoxynaphthalen-2-yl)-6-methylnicotinoyl)thiosemicarbazide [Compound 9m]”, for which the IC50 in the data set on HeLa cells is 34.5 ± 0.37 µM; with MCF-7 cells (72 h) it was 35.4 ± 0.41 µM; with HGC-27 cells it was 30.2 ± 0.61 µM.

Turning to “4-(3,5-Dimethylphenyl)-1-(2-(6-methoxynaphthalen-2-yl)-6-methylnicotinoyl)semicarbazide [Compound 9i]”, the results for the concentration for half-maximal inhibition (IC50) in the data set with HeLa cells, in the data set with MCF-7 cells (72 h) and in the data set on HGC-27 cells were 20.1 ± 0.44 µM, 21.4 ± 0.25 µM and 19.7 ± 0.31 µM, respectively.

For `N.N.[Cl][Pt][Cl]` [Cisplatin, reference compound], the concentration for half-maximal inhibition (IC50) was over 50 µM in the data set with LO2 cells; 15.2 ± 0.29 µM with HepG2 cells; 20.2 ± 0.25 µM with MDA-MB231 cells; over 50 µM with MRC-5 cells; 21.2 ± 0.08 µM in the data set on A875 cells; 16.6 ± 0.09 µM in the data set with H460 cells. For the same molecule, the IC50 in the data set on HeLa cells is 12.45 ± 0.11 µM; in the data set with A549 cells, 9.3 ± 0.11 µM; in the data set with MCF-7 cells (72 h), 10.5 ± 0.31 µM; in the data set on HGC-27 cells, 8.9 ± 0.2 µM.

For the molecule “4-(3,4-Dichlorophenyl)-1-(2-(6-methoxynaphthalen-2-yl)-6-methylnicotinoyl)semicarbazide [Compound 9k]”, the IC50 was 10.1 ± 0.69 µM in the data set on HeLa cells, 11.6 ± 0.45 µM with MCF-7 cells (72 h) and 12.4 ± 0.5 µM in the data set on HGC-27 cells.

In the case of “1-(2-(6-Methoxynaphthalen-2-yl)-6-methylnicotinoyl)-4-o-tolylthiosemicarbazide [Compound 9q]”, the values for the IC50 in the data set with HeLa cells, in the data set with MCF-7 cells (72 h) and in the data set with HGC-27 cells were 14.2 ± 0.22 µM, 23.3 ± 0.21 µM and 19.4 ± 0.69 µM, respectively.

With “4-(2,4-Difluorophenyl)-1-(2-(6-methoxynaphthalen-2-yl)-6-methylnicotinoyl)thiosemicarbazide [Compound 9v]”, the values for the IC50 in the data set on HeLa cells, in the data set with MCF-7 cells (72 h) and in the data set on HGC-27 cells were 10.1 ± 0.11 µM, 11.6 ± 0.56 µM and 12.4 ± 0.25 µM, respectively.

For “1-(2-(6-Methoxynaphthalen-2-yl)-6-methylnicotinoyl)-4-(4-methoxyphenyl)semicarbazide [Compound 9g]”, the concentration for half-maximal inhibition (IC50) with HeLa cells is 20.2 ± 0.31 µM; in the data set on MCF-7 cells (72 h) it was 18.4 ± 0.21 µM; in the data set with HGC-27 cells, 19.4 ± 0.63 µM.

As for “4-Benzyl-1-(2-(6-methoxynaphthalen-2-yl)-6-methylnicotinoyl)thiosemicarbazide [Compound 9n]”, the values for the IC50 with HeLa cells, with MCF-7 cells (72 h) and in the data set with HGC-27 cells were 25.33 ± 0.1 µM, 21.1 ± 0.32 µM and 23.16 ± 0.07 µM, respectively.

As for `COc1ccc2cc(-c3ccc(C(=O)NNC(=O)NC4CCCCC4)c(C)n3)ccc2c1` [Compound 9b], the melting point was 236 to 237 °C. This molecule also had a concentration for half-maximal inhibition (IC50) in the data set with HeLa cells (Homo sapiens) of 30.5 ± 0.4 µM. Further, inhibition in the data set on MCF-7 cells (Homo sapiens, MCF7, 72 h) was half-maximal at 41.5 ± 0.78 µM (IC50). The molecule further came in with a half-inhibitory concentration (IC50) in the data set on HGC-27 cells (Homo sapiens) of 50.26 ± 0.2 µM.

For orientation: IC50 means the midpoint of a concentration-inhibition curve. In general, melting point refers to the temperature of the solid-liquid transition.
